From US9132118B2, “Taxane analogs for the treatment of brain cancer” (Tapestry Pharmaceuticals, Inc., priority 2007, dated 2015)
Entries after “also recorded” stand apart in the source; their conditions may differ. Like-named read-outs stand apart in the source and are kept apart here.

What was measured:
[1] = S-(1) pharmacokinetics in mouse, plasma and brain levels after single IV bolus; assay type: in vivo, mice; conditions: single IV 20 mg/kg; for AUC (0-t) / AUC (0-∞) / Cmax / MRT (expo): male CD-1 mice
Description: S-(I) was formulated in 7% Ethanol: 3% Cremophor EL: 90% D5W (5% Dextrose in water). The formulated drug was administered as a single IV bolus via tail vein injection. The details are set out below:
Sample Collection timing: Terminal blood (plasma) and brain specimens were collected at 9 times post-dose, with 4 mice per sample time. Sample collection times:
Blood collection: A terminal blood sample was collected from each mouse via cardiac puncture. The whole blood was collected on wet ice, spun down immediately (at 4° C.), and plasma stored frozen at −20° C. until analysis. The anticoagulant used was K2EDTA. Brain Sample Collection: Whole brains were removed by dissection. Brains were collected on wet ice, weighed, and stored at −20° C.

[2] = test system: human U251 (glioblastoma) CNS tumor cells; conditions: for median day of death and median survival time: iv, 240 h
Source text: Tumor Model: Each animal was implanted with one million U251 human CNS tumor cells from an in vitro cell line by ic injection with a 25 gauge needle. The day of tumor implantation (May 24, 2006) was designated as day 0. A sufficient number of mice were implanted so that animals with body weights in a range as narrow as possible were selected for the trial on the day of treatment initiation (day 1 after tumor implantation). Animals were randomly assigned to the treatment groups and individually identified by earmark codes.
A portion of this solution was then diluted with the complete vehicle to achieve the lower dosing concentration of 1.2 mg/mL. […] Temozolomide (Temodar, Schering Corporation) was prepared on each day of injection in Klucel+tween 80 at a concentration of 4 mg/mL. Temozolomide was administered within 5 minutes of formulation on the basis of exact body weight using a volume of 0.2 mL/10 g of body weight.
Data Collection: Animal health surveillance was conducted and mortality data were collected daily. The animals were weighed twice weekly starting with the first day of treatment.
Study Duration: The study was terminated 100 days after tumor implantation. Any animal found moribund or whose body weight dropped below 14 g was euthanized prior to study termination.
Parameters Evaluated: Number of 100-day survivors, median day of death, and the increase in lifespan based on median day of death and expressed as a percentage (% ILS), median survival time and the % ILS based on median survival time.
Administration of the Ringer's solution was initiated when animal body weights dropped by greater than 10% and continued until the animal recovered, died, or was euthanized.

central nervous system = test: Central nervous system (CNS) safety study in rats; assay type: in vivo, rat
Description: This study was conducted at ClinTrials BioResearch (CTBR, Montreal, Quebec, Canada) as a GLP study.
Results: All animals were observed twice daily for signs of ill health or reaction to treatment, except on day of arrival and necropsy. A Functional Observation Battery
(FOB) assessment, along with grip strength, hind limb splay and body temperature measurements were performed for all animals once pre-dose and at approximately 15 minutes, 1 hour, 4 hours, 8 hours and 24 hours post-dose. After the last observation, all animals were euthanized without further examination.

[3] = Phase 1 Study S-(1)-02, i.v. every 21 days, safety and pharmacokinetics; assay type: in vivo, patients; conditions: for AUC0-24 / Cl / Vss / t1/2: Study S-(1)-02 (15:85 Cremophor EL-P/ethanol), i.v., first dose; for half-life: human, plasma, intravenous
Description: treatment cycles are repeated every 28 days in patients who remain eligible for continued treatment. Study S-(1)-O1 is currently being conducted in the United States. […] Study S-(I)-02 is currently being conducted in the United States and in Israel.
Plasma pharmacokinetics of S-(1) were assessed following the first dose of S-(1) in both studies. Plasma samples were analyzed for S-(1) using a validated LC/MS-MS method.
Treatment cohorts were expanded to 6 pts in the face of dose-limiting toxicity (DLT); pts could remain on study until the development of progressive disease or an intolerable adverse event. DLT was defined as Gr 4 heme toxicity lasting 7 days; febrile neutropenia, Gr 3 thrombocytopenia with bleeding, Gr 3 elevation of transaminases lasting 7 days or any other Gr ¾ toxicity other than nausea or vomiting.

For `C=C[C@H]1O[C@H]2CC3OC[C@@]3(OC(C)=O)[C@H]3[C@H](OC(=O)c4ccccc4)[C@]4(C(C)(C)O)C[C@H](OC(=O)[C@H](O)[C@H](CC(C)C)NC(=O)OC(C)(C)C)C(C)=C4[C@H](OC(C)=O)[C@H](O1)[C@]23C` (stereo partly drawn) [S-(1)], the “AUC (0-t)” value ([1]; Brain) was 64984.9 ng·h/mL, the “AUC (0-∞)” value ([1]; Brain) was 88742.9 ng·h/mL and the Cmax ([1]; Brain) was 3726.6 ng/mL. For the same compound, the “MRT (expo)” value ([1]; Brain) was 42.5 h, the “AUC (0-t)” value ([1]; Plasma) was 16870.2 ng·h/mL and the “AUC (0-∞)” value ([1]; Plasma) was 16951.2 ng·h/mL. For the same compound, the Cmax ([1]; Plasma) was 1550.2 ng/mL, the “MRT (expo)” value ([1]; Plasma) was 17.6 h and the “passage of the blood-brain barrier (in words)” value ([1]; mouse model) was “not impeded by the blood-brain barrier”. The “median day of death and median survival time” value ([2]; 12 mg/kg) was 14.5 days, the “median day of death and median survival time” value ([2]; 20 mg/kg) was 16 days and the “effect against the U251 human CNS tumor cells (in words)” value ([2]; monotherapy or combination treatment, intracranial xenograft) was “moderate effect”. For the same compound, the “biological effect on central nervous system (functional observational battery, grip strength, hind limb splay, body temperature)” value (central nervous system; single intravenous 6.25, 12.5 or 25 mg/kg, male Sprague Dawley rats, 15 minutes, 1, 4, 8 and 24 hours post-dose) was “no biological effects”, the “deaths or treatment-related clinical signs” value (central nervous system; single intravenous 6.25, 12.5 or 25 mg/kg, male rats) was “no deaths or treatment-related clinical signs” and the “no adverse effect level” value (central nervous system; single intravenous dose, male Sprague Dawley rats) was 25 mg/kg. It also gave an AUC0-24 ([3]; 56 mg/m^2, plasma) of 2530 ± 847 ng·h/mL, a Cl ([3]; 56 mg/m^2, plasma) of 18.9 ± 9.53 L/hr/m^2 and a Vss ([3]; 56 mg/m^2, plasma) of 232 ± 93.6 L/m^2. For the same compound, the t1/2 ([3]; 56 mg/m^2, plasma) was 8.96 ± 7.09 h, the AUC0-24 ([3]; 84 mg/m^2, plasma) was 3710 ng·h/mL and the Cl ([3]; 84 mg/m^2, plasma) was 15.4 L/hr/m^2. For the same compound, the Vss ([3]; 84 mg/m^2, plasma) was 300 L/m^2, the AUC0-24 ([3]; 126 mg/m^2, plasma) was 6110 ± 3030 ng·h/mL and the Cl ([3]; 126 mg/m^2, plasma) was 22.1 ± 11.2 L/hr/m^2. For the same compound, the Vss ([3]; 126 mg/m^2, plasma) was 166 ± 105 L/m^2, the t1/2 ([3]; 126 mg/m^2, plasma) was 6.27 ± 3.64 h and the AUC0-24 ([3]; 185 mg/m^2, plasma) was 7260 ± 2620 ng·h/mL. The Cl ([3]; 185 mg/m^2, plasma) was 24.7 ± 12.2 L/hr/m^2, the Vss ([3]; 185 mg/m^2, plasma) was 215 ± 116 L/m^2 and the t1/2 ([3]; 185 mg/m^2, plasma) was 3.43 ± 7.31 h. The dose limiting toxicity ([3]; Study S-(1)-02, i.v. every 21 days, 185 mg/m^2 (2 patients)) was “Grade 3 sensory neuropathy; also recorded: Gr 3 peripheral sensory neuropathy”, the “dose that can be safely administered” value ([3]; every 21 days in heavily pre-treated patients) was 160 mg/m^2 and the “patients who experienced Gr 4 neutropenia” value ([3]; every 21 days, 14 patients) was 1 pt. The “drug related adverse events” value ([3]; every 21 days, 56-185 mg/m^2, 14 patients) was “mucositis, vomiting, diarrhea, neutropenia, thrombocytopenia, myalgias and peripheral neuropathy”, the dose limiting toxicity ([3]; every 21 days, dose of 160 mg/m^2) was “no DLT was observed” and the “dose dependence of AUC (in words)” value ([3]; every-21-days study) was “generally dose linear”. For the same compound, the clearance ([3]; every-21-days study summary, dose of 126 mg/m^2) was 24.7±12.2 L/hr/m^2, the tumor response ([3]; every-21-days study, patients with advanced cancer) was 1 pt with pancreatic cancer had a confirmed response and the half-life ([3]; 126 mg/m2, every-21-days study summary, dose of 126 mg/m^2, read-out: t1/2 (converted)) was 10.6 h. For the same compound, the half-life ([3]; Study S-(1)-02, after first dose, read-out: Plasma t1/2, range over dose groups) was 3.43 to 8.96 h.
